Patent publication US20200109126A1 (priority 2017, published 2020)
Entries after “also recorded” stand apart in the source; their conditions may differ. Like-named read-outs stand apart in the source and are kept apart here.

How the values were obtained:
humanDOR = humanDOR (Homo sapiens, UniProt P41143); test: Receptor binding with [3H]diprenorphine at human DOR
MM1 (MOR N127C) = target: T1, MM1 (MOR N127C) (Homo sapiens, UniProt P35372, N129C); test: Receptor binding at MM1 (MOR N127C)
T1 construct: expressed in transfected cells; host or cells: HEK 293

hMOR [1] = target: T2, hMOR (Homo sapiens, UniProt P35372); test: Receptor binding with [3H]diprenorphine at hMOR
hKOR [2] = target: T3, hKOR (Homo sapiens, UniProt P41145); test: Receptor binding with [3H]diprenorphine at hKOR
hMOR + Gqi5 = target: T4, hMOR + Gqi5 (Homo sapiens, UniProt P35372); test: IP accumulation assay, hMOR + Gqi5; type: cell-based; settings: % morphine
T4 construct: expressed in transfected cells

hDOR = hDOR (Homo sapiens, UniProt P41143); test: Radioligand binding studies (Example 6) at hDOR
Procedure: (§1) For a primary screen of selected molecules, binding to μOR was assessed by measuring competition against the radioligand ^3H-diprenorphine (^3H-DPN). […] The reaction contained 40 fmol of μOR and was incubated in a buffer of 20 mM HEPES pH 7.5, 100 mM sodium chloride, and 0.1% bovine serum albumin for 1 hour at 25° C. To separate free from bound radioligand, reactions were rapidly filtered over Whatman GF/B filters with the aid of a Brandel harvester and ^3H-DPN counts were measured by liquid scintillation. […] Subsequently, the 8 compounds were tested in full dose-response for affinity at the μOR and the κOR by the National Institutes of Mental Health Psychoactive Drug Screen Program (PDSP), as were the affinities of the compounds at the μOR, δOR, κOR, and the nociception receptor.

hKOR [3] = target: T3, hKOR; test: Radioligand binding studies (Example 6) at hKOR
Procedure: as §1

hMOR [4] = target: T2, hMOR; test: Radioligand binding studies (Example 6) at hMOR
Procedure: as §1

μOR [5] = target: T5, μOR (Homo sapiens, UniProt P35372); test: BRET-based cAMP accumulation assay (SAR of PZM21-29); type: cell-based; settings: for loss of potency: compared to parent reference compound (PZM22)
κOR = target: T6, κOR (Homo sapiens, UniProt P41145); test: Radioligand binding at κOR (PDSP); settings: for κOR Ki, given as percentage: <50% instead of a Ki
T6 construct: NIMH Psychoactive Drug Screening Program (PDSP)

μOR [6] = target: T5, μOR; test: biochemical; type: binding; set-up: expressed in transfected cells; host or cells: HEK293 membranes (Ki); Sf9 insect cell membranes (single-point screen); PDSP for analogs
Procedure: For a primary screen of selected molecules, binding to OR was assessed by measuring competition against the radioligand ^3H-diprenorphine (^3H-DPN). […] The reaction contained 40 fmol of μOR and was incubated in a buffer of 20 mM HEPES pH 7.5, 100 mM sodium chloride, and 0.1% bovine serum albumin for 1 hour at 25° C. To separate free from bound radioligand, reactions were rapidly filtered over Whatman GF/B filters with the aid of a Brandel harvester and ^3H-DPN counts were measured by liquid scintillation.

μOR [7] = target: T5, μOR; test: cell-based; type: cell-based; settings: for EC50: ND = not detectable under these experimental conditions
μOR [8] = target: T5, μOR; test: β-arrestin2 recruitment, PathHunter assay; type: cell-based
nociceptin receptor = target: T7, nociceptin receptor (Homo sapiens, UniProt P41146); test: Gi/o Glosensor assay at nociceptin receptor; type: cell-based; settings: ND = not detectable
T7 construct: NIMH Psychoactive Drug Screening Program (PDSP)

[9] = PZM analogs, (n) = number of independent experiments, read-out: binding affinity Ki hDOR
[10] = (n) = number of independent experiments, read-out: binding affinity Ki MM1 (MOR N127C)
[11] = PZM analogs, (n) = number of independent experiments, read-out: binding affinity Ki hMOR
[12] = PZM analogs, (n) = number of independent experiments, read-out: binding affinity Ki hKOR
[13] = ± SD (two experiments) or SEM, (n) experiments, read-out: humanDOR [3H]dyprenorphine Ki
[14] = ± SD (two experiments) or SEM, (n) experiments, read-out: hKOR [3H]dyprenorphine Ki
[15] = ± SD (two experiments) or SEM, (n) experiments, read-out: hMOR [3H]dyprenorphine Ki
[16] = analogs, full dose-response, read-out: μOR Ki
[17] = κOR Ki (μM), analogs, full dose-response

T1 sequence (P35372 whole entry N129C): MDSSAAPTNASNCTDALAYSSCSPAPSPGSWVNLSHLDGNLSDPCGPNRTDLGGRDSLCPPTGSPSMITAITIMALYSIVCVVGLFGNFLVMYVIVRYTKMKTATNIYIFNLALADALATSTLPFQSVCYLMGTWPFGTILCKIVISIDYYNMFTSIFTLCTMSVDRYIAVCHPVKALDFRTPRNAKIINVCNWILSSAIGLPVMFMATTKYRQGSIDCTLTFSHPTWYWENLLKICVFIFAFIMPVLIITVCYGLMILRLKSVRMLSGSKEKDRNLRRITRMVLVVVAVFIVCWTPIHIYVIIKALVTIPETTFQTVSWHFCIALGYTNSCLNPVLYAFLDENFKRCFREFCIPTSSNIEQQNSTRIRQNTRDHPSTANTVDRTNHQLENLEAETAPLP
T6 sequence (P41145 whole entry): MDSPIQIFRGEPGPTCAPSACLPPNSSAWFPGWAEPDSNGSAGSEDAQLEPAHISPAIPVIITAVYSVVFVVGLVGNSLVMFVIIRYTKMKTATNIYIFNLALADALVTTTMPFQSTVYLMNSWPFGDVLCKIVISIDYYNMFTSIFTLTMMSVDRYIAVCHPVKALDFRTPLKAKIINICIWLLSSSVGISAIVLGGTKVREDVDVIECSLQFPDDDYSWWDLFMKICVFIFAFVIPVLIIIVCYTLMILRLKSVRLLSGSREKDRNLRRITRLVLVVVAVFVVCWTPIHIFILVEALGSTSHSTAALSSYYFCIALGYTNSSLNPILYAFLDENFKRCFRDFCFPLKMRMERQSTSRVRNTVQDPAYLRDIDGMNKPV
T3 sequence (P41145 whole entry): as above
T4 sequence (P35372 whole entry): as the sequence (P35372 whole entry N129C) above, with C129N counted along it
T5 sequence (P35372 whole entry): as the sequence (P35372 whole entry N129C) above, with C129N counted along it
T2 sequence (P35372 whole entry): as the sequence (P35372 whole entry N129C) above, with C129N counted along it
Chain of humanDOR (P41143 whole entry): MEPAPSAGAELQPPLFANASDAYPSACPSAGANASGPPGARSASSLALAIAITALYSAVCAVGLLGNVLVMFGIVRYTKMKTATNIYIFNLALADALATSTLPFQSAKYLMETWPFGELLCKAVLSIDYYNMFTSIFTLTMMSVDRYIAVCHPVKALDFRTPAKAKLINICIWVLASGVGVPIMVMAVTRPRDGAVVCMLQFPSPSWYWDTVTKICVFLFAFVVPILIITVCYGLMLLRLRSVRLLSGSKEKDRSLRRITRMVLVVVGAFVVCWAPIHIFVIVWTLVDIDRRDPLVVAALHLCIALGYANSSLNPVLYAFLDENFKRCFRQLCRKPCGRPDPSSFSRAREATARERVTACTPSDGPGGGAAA
Chain of hDOR (P41143 whole entry): as above
T7 sequence (P41146 whole entry): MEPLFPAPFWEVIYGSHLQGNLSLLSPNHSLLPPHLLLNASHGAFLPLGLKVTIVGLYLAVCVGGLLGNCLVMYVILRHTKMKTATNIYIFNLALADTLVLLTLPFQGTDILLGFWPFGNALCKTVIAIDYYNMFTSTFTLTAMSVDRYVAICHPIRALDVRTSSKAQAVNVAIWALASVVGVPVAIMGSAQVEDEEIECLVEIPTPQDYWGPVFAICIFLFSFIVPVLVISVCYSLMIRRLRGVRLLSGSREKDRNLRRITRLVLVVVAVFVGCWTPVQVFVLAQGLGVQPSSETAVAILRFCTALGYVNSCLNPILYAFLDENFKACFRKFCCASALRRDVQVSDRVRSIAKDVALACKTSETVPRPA

## C[C@@H](Cc1ccsc1)NC(=O)NC[C@H](Cc1ccc(O)nc1)N(C)C
humanDOR; [9]
  Ki: > 20000 nM
MM1 (MOR N127C); [10]
  Ki: 3800 nM
hMOR [1]; [11]
  Ki: 4600 nM
hKOR [2]; [12]
  Ki: 12000 nM

## CN(C)[C@H](CNC(=O)NCCN1C(=O)C=CC1=O)Cc1ccc(O)cc1
humanDOR; [9]
  Ki: 450 nM
MM1 (MOR N127C); [10]
  Ki: 3.7 nM
hMOR [1]; [11]
  Ki: 240 nM
hKOR [2]; [12]
  Ki: 600 nM

## CN(C)[C@H](CNC(=O)NCCCN1C(=O)C=CC1=O)Cc1ccc(O)cc1
humanDOR; [9]
  Ki: 3100 nM
MM1 (MOR N127C); [10]
  Ki: 4.7 nM
hMOR [1]; [11]
  Ki: 380 nM
hKOR [2]; [12]
  Ki: 450 nM

## CN(C)[C@H](CNC(=O)NCCCCN1C(=O)C=CC1=O)Cc1ccc(O)cc1
humanDOR; [9]
  Ki: 4900 nM
MM1 (MOR N127C); [10]
  Ki: 5.9 nM
hMOR [1]; [11]
  Ki: 1000 nM
hKOR [2]; [12]
  Ki: 760 nM

## Cc1cc(O)cc(C)c1C[C@@H](CNC(=O)NCCN1C(=O)C=CC1=O)N(C)C
humanDOR; [9]
  Ki: 150 nM
MM1 (MOR N127C); [10]
  Ki: 0.93 nM
hMOR [1]; [11]
  Ki: 18 nM
hKOR [2]; [12]
  Ki: 200 nM

## C[C@@H](CN1C(=O)C=CC1=O)NC(=O)NC[C@H](Cc1ccc(O)cc1)N(C)C
humanDOR; [9]
  Ki: 860 nM
MM1 (MOR N127C); [10]
  Ki: 5.6 nM
hMOR [1]; [11]
  Ki: 410 nM
hKOR [2]; [12]
  Ki: 1200 nM

## C[C@H](CN1C(=O)C=CC1=O)NC(=O)NC[C@H](Cc1ccc(O)cc1)N(C)C
humanDOR; [9]
  Ki: 210 nM
MM1 (MOR N127C); [10]
  Ki: 0.13 nM
hMOR [1]; [11]
  Ki: 90 nM
hKOR [2]; [12]
  Ki: 690 nM

## CN(C)[C@H](CNC(=O)NCCc1c[nH]nn1)Cc1ccc(O)cc1
humanDOR
  Ki: 4700 nM
MM1 (MOR N127C)
  Ki: 630 nM
hMOR [1]
  Ki: 960 nM
hKOR [2]
  Ki: 1400 nM

## CC(Cc1ccsc1)NC(=O)NCC(Cc1ccc(O)cc1)N(C)C (single isomer, unassigned) [BD 122LR]
hMOR + Gqi5
  hMOR + Gqi5 IP accumulation assay efficacy a: a: 17%
humanDOR; [13]
  Ki: 88 nM
hKOR [2]; [14]
  Ki: 190 nM

## CC(Cc1ccsc1)NC(=O)NCC(Cc1ccc(O)cc1)N(C)C (single isomer, unassigned) [BD 122LS]
hMOR + Gqi5
  hMOR + Gqi5 IP accumulation assay efficacy a: a: 73%

## Cc1cc(O)cc(C)c1C[C@@H](CNC(=O)N[C@H](C)Cc1ccsc1)N(C)C [BD 131LR, 1-((S)-2-(dimethylamino)-3-(4-hydroxy-2,6-dimethylphenyl)propyl)-3-((R)-1-(thiophen-3-yl)propan-2-yl)urea]
hMOR + Gqi5; @10 μM
  hMOR + Gqi5 IP accumulation assay efficacy a @10 μM: @10 μM a: 10%
humanDOR; [13]
  Ki: 17 nM
hMOR [1]; [15]
  Ki: 4.1 nM
hKOR [2]; [14]
  Ki: 12 nM

## Cc1cc(O)cc(C)c1C[C@@H](CNC(=O)N[C@@H](C)Cc1ccsc1)N(C)C [BD 131LS, 1-((S)-2-(dimethylamino)-3-(4-hydroxy-2,6-dimethylphenyl)propyl)-3-((S)-1-(thiophen-3-yl)propan-2-yl)urea]
hMOR + Gqi5
  hMOR + Gqi5 IP accumulation assay efficacy a: a: <5%
humanDOR; [13]
  Ki: 85 nM
hMOR [1]; [15]
  Ki: 12 nM
hKOR [2]; [14]
  Ki: 6.5 nM

## C[C@@H](Cc1ccsc1)NC(=O)NC[C@@H]1Cc2ccc(O)cc2CN1C [DD118, 1-(((S)-7-hydroxy-2-methyl-1,2,3,4-tetrahydroisoquinolin-3-yl)methyl)-3-((S)-1-(thiophen-3-yl)propan-2-yl)urea]
hDOR
  Ki: 150 nM
hKOR [3]
  Ki: 110 nM
hMOR [4]
  Ki: 150 nM

## COc1cc(F)ccc1CCNC(=O)NC[C@H](Cc1ccc(O)cc1)N(C)C [DD214, (S)-1-(2-(dimethylamino)-3-(4-hydroxyphenyl)propyl)-3-(4-fluoro-2-methoxyphenethyl)urea]
hDOR
  Ki: 390 nM
hKOR [3]
  Ki: 170 nM
hMOR [4]
  Ki: 42 nM

## COc1ccc(C[C@@H](CNC(=O)N[C@@H](C)Cc2ccsc2)N(C)C)cc1 [DD222, 1-((S)-2-(dimethylamino)-3-(4-methoxyphenyl)propyl)-3-((S)-1-(thiophen-3-yl)propan-2-yl)urea]
hDOR
  Ki: 5900 nM
hKOR [3]
  Ki: 460 nM
hMOR [4]
  Ki: 390 nM

## CN[C@H](CNC(=O)NCCc1ccc(F)cc1OC)Cc1ccc(O)cc1 [DD229, (5)-1-(4-fluoro-2-methoxyphenethyl)-3-(3-(4-hydroxyphenyl)-2-(methylamino)propyl)urea]
hDOR; read-out: Binding affinities hDOR [3H]dyprenorph
  Ki: 480 nM
hKOR [3]; read-out: Binding affinities hKOR [3H]dyprenorph
  Ki: 320 nM
hMOR [4]; read-out: Binding affinities hMOR [3H]dyprenorph
  Ki: 130 nM

## CC(=O)Oc1ccc(C[C@@H](CNC(=O)N[C@@H](C)Cc2ccsc2)N(C)C)cc1 [DD230, 4-((S)-2-(dimethylamino)-3-(3-((S)-1-(thiophen-3-yl)propan-2-yl)ureido)propyl)phenyl acetate]
hDOR
  Ki: 920 nM
hKOR [3]
  Ki: 250 nM
hMOR [4]
  Ki: 240 nM

## CN(C)[C@H](CNc1c(NCCc2ccccc2)c(=O)c1=O)Cc1ccc(O)cc1 [DD247, (S)-3-((2-(dimethylamino)-3-(4-hydroxyphenyl)propyl)amino)-4-(phenethylamino)cyclobut-3-ene-1,2-dione]
hDOR
  Ki: 2900 nM
hKOR [3]
  Ki: 310 nM
hMOR [4]
  Ki: 320 nM

## C[C@@H](Cc1ccsc1)Nc1c(NC[C@H](Cc2ccc(O)cc2)N(C)C)c(=O)c1=O [DD251, 3-(((S)-2-(dimethylamino)-3-(4-hydroxyphenyl)propyl)amino)-4-(((S)-1-(thiophen-3-yl)propan-2-yl)amino)cyclobut-3-ene-1,2-dione]
hDOR
  Ki: 650 nM
hKOR [3]
  Ki: 16 nM
hMOR [4]
  Ki: 33 nM

## CN(C)[C@H](CNc1nc(=O)cc(Cc2ccccc2)[nH]1)Cc1ccc(O)cc1 [DD258, (S)-6-benzyl-2-((2-(dimethylamino)-3-(4-hydroxyphenyl)propyl)amino)pyrimidin-4(1H)-one]
hDOR
  Ki: 390 nM
hKOR [3]
  Ki: 350 nM
hMOR [4]
  Ki: 290 nM

## CN(CC1CC1)[C@H](CNC(=O)NCCc1ccccc1)Cc1ccc(O)cc1 [PZM27, (S)-1-(2-((Cyclopropylmethyl)(methyl)amino)-3-(4-hydroxyphenyl)propyl)-3-phenethylurea x CF3COOH]
μOR [5]
  efficacy and potency as agonist (in words): decreased efficacy
  loss of potency: 30 fold

## CN(C=O)[C@H](CNC(=O)NCCc1ccccc1)Cc1ccc(O)cc1 [PZM28, (S)—N-(1-(4-Hydroxyphenyl)-3-(3-phenethylureido)propan-2-yl)-N-methylformamide]
μOR [5]
  loss of potency: 1000 fold

## CC(C)[C@H](CNC(=O)c1ccc([N+](=O)[O-])s1)N1CCc2ccccc2C1 [compound 8]
κOR; analogs, full dose-response, read-out: κOR Ki
  Ki: 0.46 µM
μOR [6]; [16]
  Ki: 820 nM
μOR [7]; read-out: μOR Gi EC50
  EC50: 6.6 µM

## O=C(Cc1cn2ccccc2n1)NCC1(c2ccccc2)CCC1 [compound 9]
κOR; [17]
  Ki: 1.36 µM
μOR [6]; <50% instead of a Ki
  μOR Ki column, given as percentage: <50%

## CN(Cc1nnc(C2CC2)n1C)C(=O)NC[C@@H](Cc1ccccc1)N(C)C [compound 10]
κOR
  κOR Ki, given as percentage: <50%
μOR [6]
  Ki: 4750 nM

## CN(C)[C@@H](CNC(=O)NC[C@@H](O)c1cnn(C)c1)Cc1ccccc1 [compound 11]
κOR
  κOR Ki, given as percentage: <50%
μOR [6]; [16]
  Ki: 1860 nM

## C[C@H](Cc1ccsc1)NC(=O)NC[C@@H](Cc1ccccc1)N(C)C [compound 12]
κOR; Ki (nM) κOR
  Ki: 0.464 µM
κOR; [17]
  Ki: 0.46 µM
μOR [8]
  β-arrestin2 recruitment (in words): undetectable; also recorded: low levels
Nociceptin receptor
  EC50: 1400 nM
μOR [7]
  Gi/o activation, μOR agonist activity (in words): robust μOR agonist activity; also recorded: strongly activated Gi/o

## COc1nc(C)cc(C)c1CNC(=O)NC[C@@H](Cc1ccccc1)N(C)C [compound 13]
κOR; [17]
  Ki: 1.02 µM
μOR [6]
  Ki: 550 nM
μOR [7]; μOR Gi EC50 (μM)
  EC50: 3.1 µM

## CN(C)[C@H](CNC(=O)NCc1cccc([N+](=O)[O-])c1)Cc1ccccc1 [compound 14]
κOR; [17]
  Ki: 0.51 µM
μOR [6]
  Ki: 87 nM
μOR [7]; μOR Gi EC50 (μM)
  EC50: 0.44 µM

## Cc1nc(CNC(=O)NC[C@@H](Cc2ccccc2)N(C)C)sc1C [compound 15]
κOR
  κOR Ki, given as percentage: <50%
μOR [6]
  Ki: 130 nM

## CN(C)[C@H](CNC(=O)NCCc1cn(CCSSCCN=[N+]=[N-])nn1)Cc1ccc(O)cc1 [drawing 545]
humanDOR; [9]
  Ki: 3900 nM
MM1 (MOR N127C); [10]
  Ki: 34 nM
hMOR [1]; [11]
  Ki: 420 nM
hKOR [2]; [12]
  Ki: 1500 nM

## (S)-1-(2-(dimethylamino)-3-(4-hydroxy-2,6-dimethylphenyl)propyl)-3-(2-(thiophen-3-yl)ethyl)urea [DD 34L]
hMOR + Gqi5
  hMOR + Gqi5 IP accumulation assay efficacy a: a: <5%
humanDOR; [13]
  Ki: 51 nM
hMOR [1]; [15]
  Ki: 6.2 nM
hKOR [2]; [14]
  Ki: 27 nM
